Data from ChEMBL document CHEMBL1139551, “2,3-Ethylene- and 2,3-trimethylene-bridged analogues of the group III metabotropic glutamate receptor ligand 2-amino-4-phosphonobutanoic acid” (Bioorg Med Chem Lett, 2005).

Tests used:
[1] = target: T1, Metabotropic glutamate receptor 4 (Homo sapiens, UniProt Q14833); assay: Agonistic activity towards group III Metabotropic glutamate receptor stably expressed in AV12 cells when tested up to 200 uM; NS means no significant activity; format: functional, cell-based
T1 sequence (Q14833 whole entry): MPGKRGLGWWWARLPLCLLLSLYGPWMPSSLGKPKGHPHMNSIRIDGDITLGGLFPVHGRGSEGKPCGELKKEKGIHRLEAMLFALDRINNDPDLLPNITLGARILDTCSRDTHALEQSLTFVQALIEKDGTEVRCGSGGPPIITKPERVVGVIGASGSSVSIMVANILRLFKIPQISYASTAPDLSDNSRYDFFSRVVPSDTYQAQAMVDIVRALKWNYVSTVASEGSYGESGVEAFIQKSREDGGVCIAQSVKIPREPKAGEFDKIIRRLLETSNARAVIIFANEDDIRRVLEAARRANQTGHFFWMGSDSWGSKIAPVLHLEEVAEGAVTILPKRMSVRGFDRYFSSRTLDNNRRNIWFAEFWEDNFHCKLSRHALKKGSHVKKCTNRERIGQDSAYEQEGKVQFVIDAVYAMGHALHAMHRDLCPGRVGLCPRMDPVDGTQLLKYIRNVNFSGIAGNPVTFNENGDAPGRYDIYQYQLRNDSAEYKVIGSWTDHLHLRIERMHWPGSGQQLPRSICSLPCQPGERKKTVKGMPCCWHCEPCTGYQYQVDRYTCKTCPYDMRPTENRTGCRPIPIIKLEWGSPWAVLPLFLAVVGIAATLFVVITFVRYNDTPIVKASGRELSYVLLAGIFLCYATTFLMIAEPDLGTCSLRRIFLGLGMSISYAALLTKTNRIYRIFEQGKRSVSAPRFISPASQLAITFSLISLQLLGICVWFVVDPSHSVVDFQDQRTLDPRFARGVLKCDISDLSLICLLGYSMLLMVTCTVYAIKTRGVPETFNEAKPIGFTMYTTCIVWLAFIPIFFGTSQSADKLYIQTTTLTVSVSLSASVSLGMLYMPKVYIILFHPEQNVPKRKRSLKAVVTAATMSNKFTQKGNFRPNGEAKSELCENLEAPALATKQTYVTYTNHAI

[2] = target: T1, Metabotropic glutamate receptor 4; assay: Effective concentration which exhibit agonistic activity at metabotropic glutamate 4 receptor stably expressed in AV12 cells; format: functional, cell-based

Activity [1] | SMILES | EC50 [2]
No significant activity | NC1(C(=O)O)CCC1CP(=O)(O)O (stereo in doubt; 5) | 
No significant activity | NC1(C(=O)O)CCCC1CP(=O)(O)O (stereo in doubt; 7) | 
 | NC1(C(=O)O)CC1CP(=O)(O)O (stereo in doubt; 4) | 0.58 µM
 | NC1(C(=O)O)CC1CP(=O)(O)O (stereo in doubt; 3) | 7.9 µM
No significant activity | NC1(C(=O)O)CCCC1CP(=O)(O)O (stereo in doubt; 8) | 
No significant activity | NC1(C(=O)O)CCC1CP(=O)(O)O (stereo in doubt; 6) | 
